According to ChEMBL document CHEMBL4020759, “Sulfoximines as ATR inhibitors: Analogs of VE-821” (2017):
Activity calls are given as the source filed them. The calls are words filed in the database; no cut-off is given here.

How the values were obtained:
KM12 = test: Growth inhibition of human KM12 cells assessed as cell growth at 10 uM incubated for 48 hrs by sulforhodamine B assay; type: functional; settings: KM12, 48 h, read-out: Activity
HL-60(TB) = test: Growth inhibition of human HL-60(TB) cells assessed as cell growth at 10 uM incubated for 48 hrs by sulforhodamine B assay; type: functional; settings: HL-60, 48 h, read-out: Activity
IGROV-1 = test: Growth inhibition of human IGROV1 cells assessed as cell growth at 10 uM incubated for 48 hrs by sulforhodamine B assay; type: functional; settings: IGROV-1, 48 h, read-out: Activity
UO-31 = test: Growth inhibition of human UO31 cells assessed as cell growth at 10 uM incubated for 48 hrs by sulforhodamine B assay; type: functional; settings: UO-31, 48 h, read-out: Activity
A498 = test: Growth inhibition of human A498 cells assessed as cell growth at 10 uM incubated for 48 hrs by sulforhodamine B assay; type: functional; settings: A498, 48 h, read-out: Activity
U-251 = test: Growth inhibition of human U251 cells assessed as cell growth at 10 uM incubated for 48 hrs by sulforhodamine B assay; type: functional; settings: U-251, 48 h, read-out: Activity
OVCAR-3 = test: Growth inhibition of human OVCAR3 cells assessed as cell growth at 10 uM incubated for 48 hrs by sulforhodamine B assay; type: functional; settings: OVCAR-3, 48 h, read-out: Activity
M14 = test: Growth inhibition of human M14 cells assessed as cell growth at 10 uM incubated for 48 hrs by sulforhodamine B assay; type: functional; settings: M14, 48 h, read-out: Activity
CCRF-CEM = test: Growth inhibition of human CCRF-CEM cells assessed as cell growth at 10 uM incubated for 48 hrs by sulforhodamine B assay; type: functional; settings: read-out: Activity
UACC-257 = test: Growth inhibition of human UACC257 cells assessed as cell growth at 10 uM incubated for 48 hrs by sulforhodamine B assay; type: functional; settings: UACC-257, 48 h, read-out: Activity
RXF 393 = test: Growth inhibition of human RXF393 cells assessed as cell growth at 10 uM incubated for 48 hrs by sulforhodamine B assay; type: functional; settings: RXF 393, 48 h, read-out: Activity
Hs-578T = test: Growth inhibition of human Hs578T cells assessed as cell growth at 10 uM incubated for 48 hrs by sulforhodamine B assay; type: functional; settings: read-out: Activity
SW-620 = test: Growth inhibition of human SW620 cells assessed as cell growth at 10 uM incubated for 48 hrs by sulforhodamine B assay; type: functional; settings: SW-620, 48 h, read-out: Activity
SR = test: Growth inhibition of human SR cells assessed as cell growth at 10 uM incubated for 48 hrs by sulforhodamine B assay; type: functional; settings: read-out: Activity
TK-10 = test: Growth inhibition of human TK10 cells assessed as cell growth at 10 uM incubated for 48 hrs by sulforhodamine B assay; type: functional; settings: TK-10, 48 h, read-out: Activity
OVCAR-4 = test: Growth inhibition of human OVCAR4 cells assessed as cell growth at 10 uM incubated for 48 hrs by sulforhodamine B assay; type: functional; settings: OVCAR-4, 48 h, read-out: Activity
NCI-H322M = test: Growth inhibition of human NCI-H322M cells assessed as cell growth at 10 uM incubated for 48 hrs by sulforhodamine B assay; type: functional; settings: read-out: Activity
A549 = test: Growth inhibition of human A549/ATCC cells assessed as cell growth at 10 uM incubated for 48 hrs by sulforhodamine B assay; type: functional; settings: A549, 48 h, read-out: Activity
SK-MEL-2 = test: Growth inhibition of human SK-MEL-2 cells assessed as cell growth at 10 uM incubated for 48 hrs by sulforhodamine B assay; type: functional; settings: SK-MEL-2, 48 h, read-out: Activity
NCI-H23 = test: Growth inhibition of human NCI-H23 cells assessed as cell growth at 10 uM incubated for 48 hrs by sulforhodamine B assay; type: functional; settings: NCI-H23, 48 h, read-out: Activity
[1] = molecular target: Serine/threonine-protein kinase ATR (Homo sapiens) (UniProt Q13535); test: Inhibition of ATR in human U2OS cells assessed as reduction in hydroxyurea-induced Chk-1 phosphorylation at Ser345 residue at 10 uM preincubated for 1 hr followed by hydroxyurea challenge measured after 1 hr by Western blot analysis; type: cell-based
BT-549 = test: Growth inhibition of human BT549 cells assessed as cell growth at 10 uM incubated for 48 hrs by sulforhodamine B assay; type: functional; settings: BT-549, 48 h, read-out: Activity
[2] = molecular target: Serine-protein kinase ATM (Homo sapiens) (UniProt Q13315); test: Inhibition of ATM in human U2OS cells assessed as reduction in etoposide-induced Chk-2 phosphorylation at Thr68 residue at 10 uM preincubated for 1 hr followed by etoposide challenge measured after 20 mins by Western blot analysis; type: cell-based
MDA-MB-468 = test: Growth inhibition of human MDA-MB-468 cells assessed as cell growth at 10 uM incubated for 48 hrs by sulforhodamine B assay; type: functional; settings: MDA-MB-468, 48 h, read-out: Activity
SNB-75 = test: Growth inhibition of human SNB75 cells assessed as cell growth at 10 uM incubated for 48 hrs by sulforhodamine B assay; type: functional; settings: SNB-75, 48 h, read-out: Activity
[3] = molecular target: Serine/threonine-protein kinase ATR (Homo sapiens) (UniProt Q13535); test: Inhibition of ATR in human U2OS cells assessed as reduction in hydroxyurea-induced Chk-1 phosphorylation at Ser345 residue preincubated for 1 hr followed by hydroxyurea challenge measured after 2 hrs by Western blot analysis; type: cell-based
NCI-H522 = test: Growth inhibition of human NCI-H522 cells assessed as cell growth at 10 uM incubated for 48 hrs by sulforhodamine B assay; type: functional; settings: NCI-H522, 48 h, read-out: Activity
PC-3 = test: Growth inhibition of human PC3 cells assessed as cell growth at 10 uM incubated for 48 hrs by sulforhodamine B assay; type: functional; settings: PC-3, 48 h, read-out: Activity
[4] = molecular target: Serine-protein kinase ATM (Homo sapiens) (UniProt Q13315); test: Inhibition of ATM in human U2OS cells assessed as reduction in hydroxyurea-induced H2AX phosphorylation at Ser139 residue at 3 to 10 uM preincubated for 1 hr followed by hydroxyurea challenge measured after 2 hrs by Western blot analysis; type: cell-based
Ramos = test: Induction of apoptosis in human Ramos cells assessed as increase PARP-1 cleavage at 10 uM after 48 hrs by Western blot analysis; type: functional, cell-based
NCI-H460 = test: Growth inhibition of human NCI-H460 cells assessed as cell growth at 10 uM incubated for 48 hrs by sulforhodamine B assay; type: functional; settings: NCI-H460, 48 h, read-out: Activity
786-0 = test: Growth inhibition of human 786-0 cells assessed as cell growth at 10 uM incubated for 48 hrs by sulforhodamine B assay; type: functional; settings: 786-0, 48 h, read-out: Activity
UACC-62 = test: Growth inhibition of human UACC62 cells assessed as cell growth at 10 uM incubated for 48 hrs by sulforhodamine B assay; type: functional; settings: UACC-62, 48 h, read-out: Activity

Sequence of Serine/threonine-protein kinase ATR (Homo sapiens) (Q13535 whole entry, looked up): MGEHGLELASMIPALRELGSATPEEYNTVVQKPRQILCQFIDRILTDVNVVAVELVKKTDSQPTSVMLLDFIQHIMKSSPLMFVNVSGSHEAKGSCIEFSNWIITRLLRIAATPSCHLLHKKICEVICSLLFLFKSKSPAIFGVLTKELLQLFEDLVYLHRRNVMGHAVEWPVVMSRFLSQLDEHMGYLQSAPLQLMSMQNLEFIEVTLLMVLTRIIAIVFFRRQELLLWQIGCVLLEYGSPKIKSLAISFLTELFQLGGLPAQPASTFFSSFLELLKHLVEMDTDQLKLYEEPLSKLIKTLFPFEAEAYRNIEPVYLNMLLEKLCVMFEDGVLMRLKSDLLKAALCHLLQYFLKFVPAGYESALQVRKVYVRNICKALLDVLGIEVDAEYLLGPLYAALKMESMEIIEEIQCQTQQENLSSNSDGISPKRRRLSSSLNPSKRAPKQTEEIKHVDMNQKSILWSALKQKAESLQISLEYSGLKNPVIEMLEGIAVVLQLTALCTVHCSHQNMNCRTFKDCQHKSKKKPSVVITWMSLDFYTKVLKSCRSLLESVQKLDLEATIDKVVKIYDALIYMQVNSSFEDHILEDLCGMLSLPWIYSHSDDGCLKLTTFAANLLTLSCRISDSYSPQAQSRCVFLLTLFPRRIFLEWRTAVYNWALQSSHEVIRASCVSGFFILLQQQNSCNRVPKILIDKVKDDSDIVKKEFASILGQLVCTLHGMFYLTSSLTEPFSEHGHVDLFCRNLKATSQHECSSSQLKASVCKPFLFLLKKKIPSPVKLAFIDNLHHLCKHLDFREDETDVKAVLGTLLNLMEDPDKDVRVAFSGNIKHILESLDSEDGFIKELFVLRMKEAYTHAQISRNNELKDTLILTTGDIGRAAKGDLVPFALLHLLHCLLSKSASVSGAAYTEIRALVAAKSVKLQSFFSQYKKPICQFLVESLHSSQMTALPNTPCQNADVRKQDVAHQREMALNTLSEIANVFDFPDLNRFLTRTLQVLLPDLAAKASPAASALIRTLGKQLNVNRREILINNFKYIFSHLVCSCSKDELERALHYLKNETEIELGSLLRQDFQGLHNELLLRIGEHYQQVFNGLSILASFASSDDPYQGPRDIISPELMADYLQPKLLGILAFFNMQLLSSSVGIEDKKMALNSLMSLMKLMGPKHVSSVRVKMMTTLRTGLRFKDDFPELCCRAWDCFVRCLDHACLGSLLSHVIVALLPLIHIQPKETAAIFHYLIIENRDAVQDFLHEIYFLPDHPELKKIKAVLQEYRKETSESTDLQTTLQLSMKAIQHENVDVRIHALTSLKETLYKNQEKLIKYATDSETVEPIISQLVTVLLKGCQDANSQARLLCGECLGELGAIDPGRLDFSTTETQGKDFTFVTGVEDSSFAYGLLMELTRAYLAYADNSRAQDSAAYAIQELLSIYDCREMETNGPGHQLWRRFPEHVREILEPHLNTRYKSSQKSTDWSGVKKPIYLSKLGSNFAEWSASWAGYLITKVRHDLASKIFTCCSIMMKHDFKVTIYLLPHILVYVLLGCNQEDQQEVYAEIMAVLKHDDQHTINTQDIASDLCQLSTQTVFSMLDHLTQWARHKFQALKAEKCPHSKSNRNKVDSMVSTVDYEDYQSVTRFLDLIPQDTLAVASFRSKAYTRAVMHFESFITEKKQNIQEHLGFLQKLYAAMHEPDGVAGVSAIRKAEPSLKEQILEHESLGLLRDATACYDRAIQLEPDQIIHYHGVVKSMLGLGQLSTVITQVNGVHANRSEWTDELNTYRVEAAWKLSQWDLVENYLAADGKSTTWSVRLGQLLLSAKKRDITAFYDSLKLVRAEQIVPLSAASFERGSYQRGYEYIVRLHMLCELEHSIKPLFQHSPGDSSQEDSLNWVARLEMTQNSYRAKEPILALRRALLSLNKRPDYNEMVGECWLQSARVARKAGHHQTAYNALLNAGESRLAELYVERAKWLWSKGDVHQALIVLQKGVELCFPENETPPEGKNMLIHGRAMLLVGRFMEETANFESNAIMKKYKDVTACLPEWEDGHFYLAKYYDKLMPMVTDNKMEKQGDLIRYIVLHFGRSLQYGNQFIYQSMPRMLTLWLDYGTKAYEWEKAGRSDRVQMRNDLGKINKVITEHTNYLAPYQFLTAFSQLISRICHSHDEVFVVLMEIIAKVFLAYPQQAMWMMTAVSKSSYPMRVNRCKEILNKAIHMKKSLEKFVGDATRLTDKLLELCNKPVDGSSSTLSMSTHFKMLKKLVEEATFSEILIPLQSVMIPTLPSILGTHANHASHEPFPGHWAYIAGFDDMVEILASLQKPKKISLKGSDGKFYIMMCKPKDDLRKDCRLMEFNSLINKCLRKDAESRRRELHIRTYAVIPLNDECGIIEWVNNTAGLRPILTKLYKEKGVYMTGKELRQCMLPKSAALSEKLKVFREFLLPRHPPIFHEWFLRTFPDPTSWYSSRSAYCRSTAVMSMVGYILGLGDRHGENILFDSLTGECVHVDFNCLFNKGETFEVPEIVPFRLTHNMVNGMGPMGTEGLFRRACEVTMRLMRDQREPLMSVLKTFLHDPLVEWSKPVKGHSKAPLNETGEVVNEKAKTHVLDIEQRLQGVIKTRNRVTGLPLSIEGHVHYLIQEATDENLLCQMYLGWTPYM

Structure (SMILES): C/S(=N\C#N)c1ccc(-c2cnc(N)c(C(=O)Nc3ccccc3)n2)cc1 (stereo unspecified)
- growth at 10 µM (KM12): 86.5%
- growth at 10 µM (HL-60(TB)): 79.2%
- growth at 10 µM (IGROV-1): 56.9%
- growth at 10 µM (UO-31): 49.1%
- growth at 10 µM (A498): 86.3%
- growth at 10 µM (U-251): 93.2%
- growth at 10 µM (OVCAR-3): 83.4%
- growth at 10 µM (M14): 69.5%
- growth at 10 µM (CCRF-CEM): 83.5%
- growth at 10 µM (UACC-257): 106%
- growth at 10 µM (RXF 393): 62.9%
- growth at 10 µM (Hs-578T): 74.6%
- growth at 10 µM (SW-620): 85.9%
- growth at 10 µM (SR): 57.1%
- growth at 10 µM (TK-10): 93.6%
- growth at 10 µM (OVCAR-4): 87.3%
- growth at 10 µM (NCI-H322M): 71.3%
- growth at 10 µM (A549): 85.4%
- growth at 10 µM (SK-MEL-2): 92.2%
- growth at 10 µM (NCI-H23): 98.2%
- inhibition [1]: Active
- growth at 10 µM (BT-549): 83.5%
- inhibition [2]: inactive
- growth at 10 µM (MDA-MB-468): 84.6%
- growth at 10 µM (SNB-75): 65.2%
- inhibition [3]: Dose-dependent effect
- growth at 10 µM (NCI-H522): 77.2%
- growth at 10 µM (PC-3): 86%
- inhibition [4]: inactive
- Activity (Ramos): Active
- growth at 10 µM (NCI-H460): 87.4%
- growth at 10 µM (786-0): 59.5%
- growth at 10 µM (UACC-62): 82.2%

Structure (SMILES): CS(=O)(=NC#N)c1ccc(-c2cnc(N)c(C(=O)Nc3ccccc3)n2)cc1 (stereo unspecified)
- growth at 10 µM (KM12): 78.2%
- growth at 10 µM (HL-60(TB)): 108%
- growth at 10 µM (IGROV-1): 59.8%
- growth at 10 µM (UO-31): 48.1%
- growth at 10 µM (A498): 76.1%
- growth at 10 µM (U-251): 68.5%
- growth at 10 µM (OVCAR-3): 89.4%
- growth at 10 µM (M14): 77.7%
- growth at 10 µM (CCRF-CEM): 79.9%
- growth at 10 µM (UACC-257): 102%
- growth at 10 µM (RXF 393): 71%
- growth at 10 µM (Hs-578T): 55%
- growth at 10 µM (SW-620): 109%
- growth at 10 µM (SR): 44%
- growth at 10 µM (TK-10): 97.4%
- growth at 10 µM (OVCAR-4): 97%
- growth at 10 µM (NCI-H322M): 78.6%
- growth at 10 µM (A549): 63.1%
- growth at 10 µM (SK-MEL-2): 94%
- growth at 10 µM (NCI-H23): 81.2%
- inhibition [1]: Active
- growth at 10 µM (BT-549): 73.4%
- inhibition [2]: inactive
- growth at 10 µM (MDA-MB-468): 96.7%
- growth at 10 µM (SNB-75): 56.9%
- inhibition [3]: Dose-dependent effect
- growth at 10 µM (NCI-H522): 86.8%
- growth at 10 µM (PC-3): 90.2%
- inhibition [4]: inactive
- Activity (Ramos): Active
- growth at 10 µM (NCI-H460): 83.9%
- growth at 10 µM (786-0): 45.5%
- growth at 10 µM (UACC-62): 74.7%
